According to patent US20090318396A1, “CORTICOSTEROID LINKED BETA-AGONIST COMPOUNDS FOR USE IN THERAPY” (priority 2008, published 2009):

Tests used:
[1] = test system: ovalbumin-induced lung inflammation; assay: Mouse ovalbumin model of lung inflammation; assay type: in vivo, Mice (Balb/c); settings: 3.0 mg/kg IT, 1x/day day 14 and 15; mouse OVA
Experimental: Mice (Balb/c) were immunized by intraperitoneal injection of ovalbumin (10 μg OVA suspended in 2 mg aluminum hydroxide) on day 0 and 7. One group was sensitized and treated with vehicle (NSV). One group was immunized with sterile water only and treated with vehicle, e.g. to serve as a nonsensitized (negative) control (Vehicle). […] On days 14 and 15, the animals were exposed to OVA by inhalation (3 h; 5 mg/m^3). Forty eight hours following the last OVA challenge (day 17) mice were sacrificed. Bronchoalveolar lavage (BAL) was taken from each animal to collect cells and fluid. Cell numbers and differentials were calculated from BAL.

[2] = test system: LPS-induced airway inflammation; assay: LPS-induced airway inflammation in rats; assay type: in vivo, Male Fischer 344 rats
Experimental: Example 52 was evaluated in an LPS-induced airway inflammation model in rats. Male Fischer 344 rats (n 8/group) were treated with either vehicle or test article by intratracheal instillation in […] volume 1 hour prior to LPS challenge. Animals were then exposed to LPS by nose-only inhalation exposure for 10 minutes at 5 mg/m^3 resulting in an estimated 5 μg lung deposition. Animals were sacrificed 4 hours after LPS exposure. Lungs were lavaged for bronchoalveolar lavage cell differentials and cytokine analysis by Luminex multiplex immunoassay.

[3] = test system: tobacco-smoke-induced airway inflammation; assay: Tobacco smoke model of airway inflammation in mice; assay type: in vivo, female C3H mice; settings: mean ± s.e.m.
Experimental: Vehicle and test articles are delivered by intratracheal instillation in 10% ethanol water to animals anesthetized with 3-5% isoflurane (n=8 animals per test article group). All compounds will be delivered on a daily (5 days per week) schedule for 3 weeks during the smoke exposures. Mice were exposed to cigarette smoke for 6 hours per day, 5 days per week for 3 weeks, in H1000 or H2000 chambers. Type 2R4F research cigarettes (Kentucky Tobacco Research and Development Center) were used in the study. Total particulate material (TPM) exposure was kept at […] for the first week to allow animals to reduce adverse effects during adaptation to smoke exposure. TPM exposure was maintained between 100 and 250 mg TPM/m^3 during the remainder of the study. After 3 weeks, animals were euthanized and bronchoalveolar lavage fluid was obtained for cell differentials and cytokine analysis by Luminex multiplex immunoassay.

[4] = test system: ragweed-induced bronchoconstriction; assay: Ragweed-induced bronchoconstriction in dogs; assay type: in vivo, beagle dogs; settings: mean ± s.e.m.
Experimental: The compound of Example 52 was assesed for bronchodilator activity in a ragweed-induced bronchoconstriction model in beagle dogs. Dogs were mechanically ventilated during each experiment. Airflow and tidal volume were measured using a differential pressure transducer located in front of the endotracheal tube. An esophageal balloon catheter placed in the esophagus was used to determine transpulmonary pressure. Pulmonary resistance and dynamic lung compliance were calculated from the simultaneous measurement of transpulmonary pressure and respiratory flow. The canine exposure system was designed to expose an anesthetized animal via an intubation tube. Dogs were administered vehicle or test article by inhalation 30 minutes before ragweed antigen exposure (n=4). Dogs were challenged with ragweed antigen (ragweed short, Ambrosia artemisifolia, Greer, Lenoir, N.C.) by inhalation (5 breaths). Immediately following ragweed challenge, changes in pulmonary resistance and compliance were measured for up to 30 minutes.

[5] = test system: Ascaris suum antigen-induced bronchoconstriction and airway hyperreactivity; assay: Ascaris suum-induced pulmonary responses in sheep; assay type: in vivo; settings: for Effect on late phase bronchoconstriction and development of airway hyperreactivity: duration of action regimen
Experimental: (§1) One breath unit is defined as one breath of a 1% w/v carbachol solution. Test article was administered either by a pre-dosing or duration of action protocol. In the pre-dosing regimen, animals were dosed once daily for four days, with the last dose administered 1 hr before antigen. In the duration of action regimen, animals were dosed once daily for four days, with the last dose administered 24 hours before antigen. Test article, Ascaris antigen, and carbachol were administered by nebulized aerosol to intubated sheep.

[6] = Stability of steroid C-21 esters, carbonates and carbamates in rat lung homogenate; settings: for Mean [Parent] (nM) at 2 hrs, 37° C.: parent compound; for Mean % compound remaining at 2 hrs, 37° C.: 900 nM, n=3
Experimental: Lungs from Fischer 344 rats were obtained fresh by overnight delivery at 4° C. from BioReclamation Inc. (Hicksville, N.Y.). Lungs were weighed and homogenized in a 1:3 w/v ratio with sterile phosphate buffered saline (PBS, 10 mM, pH 7.4) in glass vials on ice. After centrifugation at 3,000×g for 10 min at 4° C. the supernatant was decanted into sterile conical tubes and placed on ice. The total protein content of the supernatant was determined by the bicinchoninic acid (BCA) method (Pierce Biotechnology, Rockford, Ill.), using bovine serum albumin (BSA) as the standard. Lung homogenates were prepared to a final concentration of 1 mg total protein/mL in 10 mM PBS, pH 7.4.
Heat-inactivation was achieved by incubation at 80° C. for 30 min, after which the homogenate was allowed to cool to room temperature, stored overnight at 4° C. The homogenate was used for the assay and standard curve preparations. Before use, each homogenate preparation was equilibrated for 15 min in a 37° C. water bath. […] DMSO (2.7 uL) added to 3 mL of temperature-equilibrated homogenate served as a control. Aliquots (100 uL) of homogenate+compound were added to 400 μL quenching solution consisting of 100% HPLC-grade acetonitrile+500 ng/mL glyburide for the zero time point (n=3 for each time point).
The glyburide served as an internal LC/MS/MS standard. The remainder of each drug+homogenate solution was aliquoted into a 96-well tissue culture plates. After an additional 30 min and 120 min incubation at 37° C., 100 μL aliquots were added to 400 μL quenching solution. Denatured proteins in the quenching solution were separated by centrifugation at 3000×g for 2 min at 4° C., and 160 μL of the supernatants were transferred to new 96-well plate for analysis by LC/MS/MS. Collection plates were covered with plastic film and were kept on ice. For storage, covered plates were and kept stored at −80° C. until further use.
An aliquot of 50 μL of each sample was diluted with 50 μL of water containing internal standard at 4° C. The diluted samples were then centrifuged for 20 minutes at 3000 rpm at 4° C. An aliquot of 20 μL of the solution was injected into the TSQ Ultra Quantum.
LC/MS/MS system. The compounds were separated by HPLC using a HyPurity C18 HPLC column (30×2.1 mm, 5μ) from ThermoHypersil. A Multiplex LX-2 HPLC system (Cohesive Technologies, Franklin, Mass.) with two identical Agilent 1100 series binary pumps (P/N G1312A) were used for elution and separation. Samples were maintained at 4° C. in an HTS Pal autosampler (LEAP Technologies, Carrboro, N.C.) in order to reduce any potential spontaneous hydrolysis of the compounds before injection onto the HPLC. The analytes were eluted using the following mobile phases; Mobile phase A contained 1% acetonitrile in 10 mM ammonium formate aqueous solution with 1% formic acid. Mobile phase B contained 80% acetonitrile in 10 mM ammonium formate with 1% formic acid. The HPLC elution program used to elute the analytes was as follows:
The samples were further analyzed by tandem mass spectrometry using a TSQ Quantum Ultra triple quadrupole mass spectrometer (Thermo Finnigan, San Jose, Calif.) using a selective reaction monitoring (SRM) scan type. The mass spectrometry parameters used were as follows:
Nine-point standard curves for each test compound were prepared and analyzed in heat-inactivated lung homogenate. […] The data expressed in Table 2 represent the mean (n=3) percent remaining compound in both types of homogenate at 2 hours, 37° C.

[7] = test system: carbachol-induced bronchoconstriction; assay: Carbachol-induced bronchoconstriction in sheep; assay type: in vivo; settings: Example 52 4.7 mg, Salmeterol 2.5 mg, mean ± s.e.m, n=4
Experimental: as §1, with “Bronchoconstriction was evaluated” for “One breath unit is defined”, “a function” for “one breath”, “increased pulmonary resistance following” for “a 1% w/v”, “challenge. […]” for “solution.”, “carbachol challenge.” for “antigen.”, “article” for “article, Ascaris antigen,”

[8] = Drug levels in plasma, BALF and lung after IT administration in the rat
Experimental: Compounds of Examples 52 and 83 were formulated for intratracheal (IT) dosing in 10% EtOH, 90% Sterile Water, and dosed in male Sprague-Dawley rats at 3 mg/kg (Example 52) and 1 mg/kg (Example 83). Each dosing group consisted of 3 male, naïve purebred Sprague-Dawley rats. At dosing, the animals weighed ˜0.30 kg. The animals were fasted overnight prior to dose administration and up to 2 hr after dosing. The compounds were administered IT using a Penn Century Microsprayer (Model 1A-1B).
Blood samples were collected at 0.5, 2, and 4 hours post-dose. Each blood sample (0.5-0.6 mL per sample) was collected via the orbital sinus (following anesthesia for BAL procedure) into tubes containing EDTA anti-coagulant into containers surrounded by dry ice at 0.5, 2 and 4 hr (mean, n=6). Blood samples were stored at −20±5° C. until shipped for analysis.
The animals were anesthetized with an intramuscular (IM) injection of a ketamine/xylazine/acepromazine (80/10/2 mg/kg) cocktail at a dose volume of 1.1 mL/kg. A cannula (modified Bard® infant feeding tube) was inserted into the trachea. Warmed sterile saline was injected into the lungs. The lungs were gently massaged by palpation of the chest for approximately 45 seconds. The fluid (BALF) was recovered and placed on ice. The procedure was repeated two more times, and all three BALF samples pooled. The fluid was centrifuged under refrigerated conditions at 350 g for 10 minutes. The supernatant and cell pellet were collected and stored at approximately −70° C. until shipped for analysis.
Immediately following each BAL procedure, the lungs from each animal were removed, blotted dry, weighed, and stored frozen at −70° C. until shipped for analysis.
An LC/MS/MS method was used to measure the concentration of compound in plasma.
Add 3×w/v of 1×PBS buffer (90:10-PBS:ACN) to each lung tissue. Homogenize the sample w/Polytron (PT1200) and take 50 uL of supernatant and inject to LC/MSMS.
An aliquot of 50 μL of each plasma sample was treated with 100 mL of acetonitrile (ACN) containing internal standard. After the protein precipitation, an aliquot of 100 μL of the supernatant was transferred to a clean 96-well plate and mixed with 100 μL of water. An aliquot of 30 μL of the above solution was injected to the TSQ Ultra Quantum LC/MS/MS system.
A HyPurity C18 HPLC column (30×2.1 mm, 5μ) from ThermoHypersil (Part #: 22105-032130) was used. Mobile phase A contained 1% acetonitrile in 10 mM ammonium formate aqueous solution with 1% formic acid. Mobile phase B contained 80% acetonitrile in 10 mM ammonium formate with 1% formic acid. An Agilent 1100 series binary pump (P/N G1312A Bin Pump) was used for elution and separation. HTS Pal autosampler from LEAP Technologies, Carrboro, N.C. was used.
TSQ Quantum Ultra triple quadrupole mass spectrometer from Thermo Finnigan, San Jose, Calif. was used in selective reaction monitoring (SRM) operation mode, Tune file:

[9] = 0.51 mg/kg i.t. daily, 3 weeks smoke
[10] = 10 μg/kg by inhalation 30 minutes before ragweed, n=4
[11] = Duration of action regimen (last dose 24 hours before antigen), Post-Ascaris, Example 52 4.7 mg, ciclesonide 2.2 mg, salmeterol xinafoate 2.5 mg, n=4
[12] = Duration of action regimen, 1 hour, n=4
[13] = Duration of action regimen, 2 hours, n=4
[14] = Duration of action regimen, 3 hours, n=4
[15] = Duration of action regimen, 4 hours, n=4
[16] = Duration of action regimen, 5 hours, n=4
[17] = Duration of action regimen, 6 hours, n=4
[18] = Duration of action regimen, 6.5 hours, n=4
[19] = Duration of action regimen, 7 hours, n=4
[20] = Duration of action regimen, 7.5 hours, n=4
[21] = Duration of action regimen, 8 hours, n=4
[22] = Duration of action regimen, Baseline, Example 52 4.7 mg, ciclesonide 2.2 mg, salmeterol xinafoate 2.5 mg, n=4
[23] = Duration of action regimen, Post-Antigen, n=4
[24] = Inactive (heat-inactivated) rat lung homogenate
[25] = analyte after IT administration of Example 83, 1 mg/kg, 0.5 hr
[26] = analyte after IT administration of Example 83, 1 mg/kg, 2.0 hr
[27] = analyte after IT administration of Example 83, 1 mg/kg, 4.0 hr

## CC(C)C(=O)OCC(=O)[C@@]12O[C@H](C3CCCCC3)O[C@@H]1C[C@H]1[C@@H]3CCC4=CC(=O)C=C[C@]4(C)[C@H]3[C@@H](O)C[C@@]12C [Ciclesonide, ciclesonide]
[1]
  Eosinophils in BAL, Mean: 60170 mL⁻¹
  Neutrophils in BAL, Mean: 4790 mL⁻¹
[2]; 3 mg/kg intratracheal, 1 hour prior to LPS, rat BAL, mean ± s.e.m.
  Neutrophils: 9.7 ± 0.89 × 10^4/ml
[2]; 3 mg/kg intratracheal, rat BAL, mean ± s.e.m.
  TNFα: 629.2 ± 330.0 pg/mL
[2]; at doses tested, versus vehicle control
  Inhibition of LPS-induced airway inflammation measured as neutrophil influx and TNFα production: significantly inhibit
[3]; 0.31 mg/kg i.t.
  IL-1α: 5.25 ± 0.85 pg/mL
  MIP-1α: 8.31 ± 1.17 pg/mL
  Neutrophils: 13.9 ± 2.1 ×10^4/ml
[3]; [9]
  IL-1α: 5.50 ± 0.96 pg/mL
  MIP-1α: 10.02 ± 1.75 pg/mL
  Neutrophils: 15.0 ± 1.5 ×10^4/ml
[4]; [10]
  Pulmonary Resistance (% of Baseline): 302.3 ± 24.8 % of Baseline
[5]; [11]
  Bronchoconstriction, Lung Resistance (% Increase): 416 % Increase
[5]; [12]
  Bronchoconstriction, Lung Resistance (% Increase): 224 % Increase
[5]; [13]
  Bronchoconstriction, Lung Resistance (% Increase): 146 % Increase
[5]; [14]
  Bronchoconstriction, Lung Resistance (% Increase): 69 % Increase
[5]; [15]
  Bronchoconstriction, Lung Resistance (% Increase): 21 % Increase
[5]; [16]
  Bronchoconstriction, Lung Resistance (% Increase): 44 % Increase
[5]; [17]
  Bronchoconstriction, Lung Resistance (% Increase): 66 % Increase
[5]; [18]
  Bronchoconstriction, Lung Resistance (% Increase): 71 % Increase
[5]; [19]
  Bronchoconstriction, Lung Resistance (% Increase): 65 % Increase
[5]; [20]
  Bronchoconstriction, Lung Resistance (% Increase): 62 % Increase
[5]; [21]
  Bronchoconstriction, Lung Resistance (% Increase): 50 % Increase
[5]; [22]
  Hyperreactivity PC400: 28.3 carbachol breath units
[5]; [23]
  Hyperreactivity PC400: 21.5 carbachol breath units
[5]; Predosing regimen (last dose 1 hr before antigen), Post-Ascaris, Example 52 4.7 mg, ciclesonide 2.2 mg, n=2
  Bronchoconstriction, Lung Resistance (% Increase): 305 % Increase
[5]; Predosing regimen, 1 hour, n=2
  Bronchoconstriction, Lung Resistance (% Increase): 142 % Increase
[5]; Predosing regimen, 2 hours, n=2
  Bronchoconstriction, Lung Resistance (% Increase): 44 % Increase
[5]; Predosing regimen, 3 hours, n=2
  Bronchoconstriction, Lung Resistance (% Increase): 8 % Increase
[5]; Predosing regimen, 4 hours, n=2
  Bronchoconstriction, Lung Resistance (% Increase): 6 % Increase
[5]; Predosing regimen, 5 hours, n=2
  Bronchoconstriction, Lung Resistance (% Increase): 14 % Increase
[5]; Predosing regimen, 6 hours, n=2
  Bronchoconstriction, Lung Resistance (% Increase): 28 % Increase
[5]; Predosing regimen, 6.5 hours, n=2
  Bronchoconstriction, Lung Resistance (% Increase): 12 % Increase
[5]; Predosing regimen, 7 hours, n=2
  Bronchoconstriction, Lung Resistance (% Increase): 28 % Increase
[5]; Predosing regimen, 7.5 hours, n=2
  Bronchoconstriction, Lung Resistance (% Increase): 33 % Increase
[5]; Predosing regimen, 8 hours, n=2
  Bronchoconstriction, Lung Resistance (% Increase): 15 % Increase
[5]; Predosing regimen, Baseline, Example 52 4.7 mg, ciclesonide 2.2 mg, n=2
  Hyperreactivity PC400: 26.5 carbachol breath units
[5]; Predosing regimen, Post-Antigen (24 hours after challenge), n=2
  Hyperreactivity PC400: 25.5 carbachol breath units
[5]
  Effect on late phase bronchoconstriction and development of airway hyperreactivity: reduced efficacy
[6]; Active homogenate
  Mean [Parent] (nM) at 2 hrs, 37° C.: 18 nM
[6]; Active rat lung homogenate
  Mean % compound remaining at 2 hrs, 37° C.: 12%
[6]; [24]
  Mean % compound remaining at 2 hrs, 37° C.: 88%
[6]; Inactive homogenate
  Mean [Parent] (nM) at 2 hrs, 37° C.: 154 nM

## CCN(CC)Cc1ccc(C(=O)OCC(=O)[C@@]23O[C@H](C4CCCCC4)O[C@@H]2C[C@H]2[C@@H]4CCC5=CC(=O)C=C[C@]5(C)[C@H]4[C@@H](O)C[C@@]23C)cc1 [Example 30, 4-Diethylaminomethylbenzoic acid [[11β,16α]-[[((R)-cyclohexylmethylene)bis(oxy)]-11-hydroxypregna-1,4-diene-3,20-dion-21-yl]]ester]
other
  melting point: 123.5 °C (dec.)
[6]; Active homogenate
  Mean [Parent] (nM) at 2 hrs, 37° C.: 102 nM
[6]; Active rat lung homogenate
  Mean % compound remaining at 2 hrs, 37° C.: 46%
[6]; [24]
  Mean % compound remaining at 2 hrs, 37° C.: 51%
[6]; Inactive homogenate
  Mean [Parent] (nM) at 2 hrs, 37° C.: 109 nM

## OCc1cc(C(O)CNCCCCCCOCCCCc2ccccc2)ccc1O (stereo not drawn) [Salmeterol Xinafoate, salmeterol xinafoate]
[3]; 0.57 mg/kg i.t.
  IL-1α: 4.22 ± 0.73 pg/mL
  MIP-1α: 6.09 ± 1.38 pg/mL
  Neutrophils: 10.9 ± 2.5 ×10^4/ml
[4]; 3 μg/kg by inhalation
  Pulmonary Resistance (% of Baseline): 265.6 ± 38.8 % of Baseline
[4]; [10]
  Pulmonary Resistance (% of Baseline): 177.8 ± 14.4 % of Baseline
[5]; [11]
  Bronchoconstriction, Lung Resistance (% Increase): 370 % Increase
[5]; [12]
  Bronchoconstriction, Lung Resistance (% Increase): 213 % Increase
[5]; [13]
  Bronchoconstriction, Lung Resistance (% Increase): 114 % Increase
[5]; [14]
  Bronchoconstriction, Lung Resistance (% Increase): 64 % Increase
[5]; [15]
  Bronchoconstriction, Lung Resistance (% Increase): 25 % Increase
[5]; [16]
  Bronchoconstriction, Lung Resistance (% Increase): 54 % Increase
[5]; [17]
  Bronchoconstriction, Lung Resistance (% Increase): 86 % Increase
[5]; [18]
  Bronchoconstriction, Lung Resistance (% Increase): 85 % Increase
[5]; [19]
  Bronchoconstriction, Lung Resistance (% Increase): 83 % Increase
[5]; [20]
  Bronchoconstriction, Lung Resistance (% Increase): 76 % Increase
[5]; [21]
  Bronchoconstriction, Lung Resistance (% Increase): 72 % Increase
[5]; [22]
  Hyperreactivity PC400: 29.5 carbachol breath units
[5]; [23]
  Hyperreactivity PC400: 22.8 carbachol breath units

## OCc1cc(C(O)CNCCCCCCOCCCCc2ccccc2)ccc1O (stereo not drawn) [salmeterol]
[5]
  Effect on late phase bronchoconstriction and development of airway hyperreactivity: reduced efficacy
[7]; Duration of action regimen (last dose 24 hours before carbachol), Ciclesonide 2.2 mg + Salmeterol Xinafoate 2.5 mg
  Lung Resistance (% Increase) at 2% Carbachol: 594 ± 56 % Increase
[7]; Predosing regimen (last dose 1 hr before carbachol)
  Lung Resistance (% Increase) at 2% Carbachol: 352 ± 27 % Increase
[8]; analyte after IT administration of Example 52, 3 mg/kg, 0.5 hr
  Plasma Conc: BLQ
[8]; analyte after IT administration of Example 52, 3 mg/kg, 2.0 hr
  Plasma Conc: BLQ
[8]; analyte after IT administration of Example 52, 3 mg/kg, 4.0 hr
  Plasma Conc: BLQ
[8]; [25]
  BALF Conc: BLQ
  Plasma Conc: BLQ
[8]; [26]
  BALF Conc: BLQ
  Plasma Conc: BLQ
[8]; [27]
  BALF Conc: BLQ
  Plasma Conc: BLQ
